{
  "source": "patent US9359405B2",
  "about": "“Antagonists of the interleukin-1 receptor” (Phlogo ApS, priority 2011, dated 2016)",
  "key": {"[1]": {"target": "T1, IL1RI (Homo sapiens, UniProt P14778)", "T1 construct": "The recombinant protein comprising the whole extracellular part of IIL1RI was immobilised on the surface of a CM5 sensor chip", "T1 sequence (P14778 18-336 limits assumed)": "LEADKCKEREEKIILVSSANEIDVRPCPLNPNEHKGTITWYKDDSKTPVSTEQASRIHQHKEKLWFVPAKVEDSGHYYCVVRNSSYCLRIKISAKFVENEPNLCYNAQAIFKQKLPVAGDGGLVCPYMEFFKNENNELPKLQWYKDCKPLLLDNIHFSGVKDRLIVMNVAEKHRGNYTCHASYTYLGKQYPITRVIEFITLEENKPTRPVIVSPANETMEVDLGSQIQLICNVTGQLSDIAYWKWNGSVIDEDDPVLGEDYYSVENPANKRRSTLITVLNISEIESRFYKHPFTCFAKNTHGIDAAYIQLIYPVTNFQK", "test": "SPR (BiaCore) binding to immobilized IL1RI ectodomain", "settings": "25° C., pH 7.4", "protocol": "Binding analysis was performed using a BiaCore 2000 Instrument (BiaCore AB, Uppsala, Sweden) at 25° C. using 10 mM sodium phosphate (pH 7.4), 150 mM NaCl as running buffer. The flow-rate was 5 μl/min. Data were analysed by nonlinear curve fitting using the manufacturer's software. The recombinant protein comprising the whole extracellular part of IIL1RI was immobilised on the surface of a CM5 sensor chip by means of electrostatic interactions, and the peptide and the IL1β and IL1Ra proteins were injected at various concentrations. The curves corresponding to the difference between binding to peptides and a blank chip were used for analysis."}, "[2]": {"tested_on": "IL1β-activated AMJ2-C8 macrophage cells", "test": "TNFα secretion by IL1β-activated macrophages (L929/MTS bioassay)", "format": "cell-based", "settings": "IL1β 1.2 μM", "protocol": "The Ilantafin peptide or IL1Ra or IL1RI was added to cultures of macrophages (AMJ2-C8) seeded in 6-well multi-dishes (Nunc) (2.5×10^5 cells/well). After 24 h of incubation at 37° C., IL1β (1.2 μM) was added to the cultures to activate the macrophages. L929 cells were seeded in a 96-well plate at a density of 2×10^5 cells/mL. Both cell cultures were incubated for 24 h at 37° C. Conditioned medium from the macrophage cultures was collected and added to the fibroblast cultures together with 0.6 μg/well actinomycin. D (Sigma-Aldrich). Finally, after 24 h of incubation at 37° C., 20 μl of 3-(4,5-dimethylthiazol-2-yl)-5-(3-carboxymethoxyphenyl)-2-(4-sulfophenyl)-2H-tetrazolium (MTS) (Promega, Madison, Wis., USA) was added to each well and the plates were incubated protected from light, at 37° C., for ˜45 min and the optical density was measured at 490 nm in a Sunrise absorbance reader (Tecan, Männedorf, Switzerland). In order to calculate the amount of TNF-α in the conditioned medium, a standard curve was obtained by treating fibroblasts with different concentrations of TNF-α (R&D systems, Minneapolis, Minn., USA)."}, "[3]": {"tested_on": "collagen-induced arthritis (CIA)", "test": "Collagen-induced arthritis in rats, treatment dpi 8-15 (Example 14)", "format": "in vivo, rat", "settings": "10.0 mg/kg s.c. daily dpi 8-15", "protocol": "Induction of CIA. The CIA study was performed on a total of 40 male Wistar rats with an average weight of 150 g at the beginning of the experiment. CIA was induced by subcutaneous (s.c.) injection of bovine collagen type II (CII, Sigma-Aldrich) solubilised in 0.05 M acetic acid (2 mg/ml), and then emulsified 1:1 with CFA (Sigma-Aldrich) containing […] heat-inactivated M. tuberculosis. Under inhalation anaesthesia (Isofluran, 3%) 250 μl of the emulsion containing 250 μg of CII and […] was injected (s.c.) at the tail base (post-immunization day, dpi 0).\nTreatment design. At dpi 8, before onset of clinical signs, all animals were randomly divided into two groups, 20 rats per group, and were dosed daily during 8 days (dpi 8-15) with Ilantafin (10.0 mg/kg, s.c.) or vehicle (PBS, 1.0 ml/kg, s.c.). […]\nClinical scores. An observer blinded to treatment groups evaluated the severity of arthritis employing the following grading system: O— no redness or swelling in foot; 1—slight redness in foot or redness and swelling in single interfalangeal joints; 2—moderate swelling and redness in ankle and metatarsal part of foot; 3—marked swelling and redness of entire foot, restricted usage of foot in locomotion; 4—marked swelling and redness of entire foot, impossibility of usage foot in locomotion and rearing. […]"}},
  "note": "No end group written: not given here.",
  "data": [
    {"sequence": "SGRKSSKMQA [Ilantafin]", "values": [
      {"measurement": "affinity of interaction with immobilized ectodomain of IL1RI", "setting": "[1]", "value": "within the same order of magnitude as the binding affinities of IL1β and IL1Ra to IL1RI"},
      {"measurement": "inhibition of TNFα secretion by IL1β-activated macrophages", "setting": "[2]", "value": "in a dose dependent manner inhibits the IL1β-induced activation of macrophages"},
      {"measurement": "morbidity (percentage of animals reached clinical index 7)", "setting": "[3]", "value": "significantly reduced morbidity by dpi 12"},
      {"measurement": "severity of CIA (clinical score)", "setting": "[3]", "value": "attenuated severity of CIA on dpi 13-15"}
    ]}
  ]
}
